Entries after “also recorded” stand apart in the source; their conditions may differ.
Tests used:
[1] = test system: acute pain (surgical and non-surgical); experiment: Single-arm study of safety and effectiveness of Compound 1 for acute pain, surgical and non-surgical subjects (Example 7); format: in vivo, human; details: Compound 1 100 mg first dose, then 50 mg q12h
[2] = test system: acute pain after an abdominoplasty; experiment: Randomized, double-blind, placebo-controlled, 3-arm study of Compound 1 in acute pain after an abdominoplasty (Example 6); details: Compound 1 100 mg first dose, then 50 mg q12 h, placebo 8 hours
[3] = test system: painful diabetic peripheral neuropathy (DPN); experiment: Randomized, double-blind, active-controlled, dose-ranging, 4-arm study of Compound 1 in painful diabetic peripheral neuropathy (Example 8)
From the text: The study population included male and female subjects 18 through 80 years of age, inclusive, with presence of bilateral pain in lower extremities due to DPN for at least 1 year, and weekly average Numeric Pain Rating Scale (NPRS) pain score of ≥4.
Subjects who met eligibility criteria entered a 7-day Run-in Period to establish their baseline Numeric Pain Rating Scale (NPRS) pain score and Daily Sleep Interference Scale (DSIS) score. Subjects with a baseline average NPRS score of ≥4 points with limited variation (SD<25% of mean) were eligible for the 12-week Treatment Period followed by a Safety Follow-up Visit.
Randomization was stratified by sex (female and male) and body mass index (≥30 and <30 kg/m^2). To maintain the blind, all subjects received the same number of tablets once daily (qd) in the morning and the same number of capsules 3 times per day (tid) in a double-dummy design.
Acetaminophen was be permitted as a pain rescue medication as needed (prn) throughout the study. Subjects were permitted to take 500 mg of acetaminophen every 4 to 6 hours as needed, up to a maximum of 2500 mg in any 24-hour period.
The reference drug was administered orally in a 100 mg capsule tid.
From Day −7 through Week 12, subjects reported their average daily pain during the last 24 hours on the NPRS via e-diary; during the treatment period, the NPRS was completed in the morning before the first daily dose. Subjects also reported their current pain score before each administration of rescue medication. The NPRS scores from the daily e-diary, especially the change from baseline in the weekly average at Week 12, were used in the primary endpoint analysis, and the proportion of subjects with ≥30%, ≥50%, and ≥70% reduction in weekly average scores, especially at Week 12, as reported in the daily e-diary were used in the secondary endpoint analyses. For the primary endpoint, daily NPRS scores were averaged over a weekly period to reduce the impact of individual high or low pain scores.
Daily Sleep Interference Scale (DSIS): Pain frequently interferes with sleep, and sleep is important to quality of life. The FDA recommends evaluating the effect of analgesics on sleep. DSIS is commonly used in neuropathic pain studies and is assessed on an 11-point scale. The 11 point scale ranges from 0 (none) to 10 (severe). The DSIS was completed each morning before the first daily dose in an e-diary to describe how pain interfered with the subject's sleep. The change from baseline in the weekly average of DSIS, especially at Week 12, was used in the secondary endpoint analysis.
Patient Global Impression of Change (PGIC): The PGIC is commonly used in neuropathic pain studies, and the Initiative on Methods, Measurement, and Pain Assessment in Clinical Trials (IMMPACT) group recommends it as a core outcome measure for chronic pain studies and is thus evaluated in this study. There is some evidence that PGIC may be more sensitive in neuropathic pain studies than pain intensity assessments because it may assess additional quality of life measures. The assessment consists of a single item on a 7-point scale from 1 (very much improved) to 7 (very much worse). The PGIC was completed at selected study visits to quantify the change in subjects' overall status. The proportion of subjects categorized as improved on the PGIC assessment, especially at Week 12, was used in the secondary endpoint analysis.
Proportion of subjects using Rescue Medication and Total Medication Usage: Acetaminophen was permitted as a pain rescue medication as needed (prn) throughout the study.

[4] = test system: acute pain after a bunionectomy; experiment: Randomized, double-blind, placebo-controlled, 3-arm study of Compound 1 in acute pain after a bunionectomy (Example 5); details: Compound 1 100 mg first dose, then 50 mg q12 h, placebo 8 hours
[5] = test system: pain following bunionectomy; experiment: Randomized, double-blind, placebo-controlled, 5-arm study of Compound 1 in subjects with pain following bunionectomy (Example 4); details: for Mean SPID48: oral
Procedure: A randomized, double-blind, placebo-controlled, 5-arm, parallel-design study to evaluate the efficacy and safety of Compound 1 on acute surgical pain is conducted. Bunionectomy is a well-established, multi-dose, surgical, acute pain model. A randomized, double-blind study design was used to avoid observer bias and reduce symptoms or outcomes arising from the subjects' knowledge of treatment.
Male and female patients between the ages of 18 and 75 years (inclusive) with pain that is ≥4 on an 11-point Numeric Pain Rating Scale (NPRS) and is moderate or severe on the Verbal Categorical Rating Scale (VRS) after bunionectomy are included in the study.
Investigational Drug: Compound 1. The investigational drug was administered orally in 10 mg tablets. […] The investigational drug was administered every 12 hours (q12h). A low, mid, and high dosing regimen were tested. The first dose in the low dosing regime was 20 mg, and the subsequent doses were 10 mg g12h. The first dose in the mid dosing regime was 60 mg, and the subsequent doses were 30 mg g12h. The first dose in the high dosing regime was 100 mg, and the subsequent doses were 50 mg g12h.
The reference drug was administered orally in 5 mg/325 mg capsules, supplied as over-encapsulated 5 mg/325 mg tablets. The reference drug was administered in a dose of 5 mg/325 mg every 6 hours (q6h).
After a screening period, subjects receive a primary unilateral first metatarsal bunionectomy repair on Day minus one under regional anesthesia (Mayo and popliteal block). A continuous popliteal sciatic block infusion (0.2% ropivacaine) is started after surgery, and remains in place until approximately 3 AM on Day 1. After removal of the popliteal sciatic block, each subject is randomized when the subject requests the first dose of study drug for pain relief and reports pain ≥4 on the NPRS and moderate or severe pain on the VRS.
Randomization was stratified by site and baseline NPRS (<8 versus ≥8). To maintain the blind, all subjects receive the same number of capsules in a double-dummy design.
Compound 1 was administered every 12 hours (q12h). The final dose of Compound 1 is given 36 hours after the first dose.
Compound 1 placebo capsules are administered every 12 hours (q12h).
11-point (0 to 10) Numeric Pain Rating Scale: NPRS scores are frequently used in bunionectomy studies and are recognized by the FDA as a valid pain intensity measure. On the 11-point NPRS, a score of 0 denotes no pain, and a score of 10 denotes the worst pain intensity imaginable. Subjects reported their pain on the 11-point NPRS immediately before their first dose of the study drug (baseline NPRS score) and at intervals over 48 hour period (i.e. 0.5, 1, 1.5, 2, 3, 4, 5, 6, 8, 12, 16, 20, 24, 28, 32, 36, 40, 44, and 48 hours (±5 minutes)) after the first dose of the study drug. Pain intensity is also recorded on the NPRS immediately before each administration of rescue medication. Pain intensity scores that are collected within 4 hours after a dose of rescue medication are deemed missing, and the missing values are imputed as the intensity recorded immediately before the administration of rescue medication.
SPID-48 is the sum of the pain intensity difference (PID) over the 48 hour time period. A pain intensity score of 0 (no pain) to 10 (worse possible pain) is obtained before starting the study and throughout the 48 time period. The pain score at each assessment time is subtracted from the baseline pain score to provide the total sum score or SPID-48. A higher SPID-48 is better and indicates a reduction in pain intensity compared to the baseline score.
4-point Verbal Categorical Rating Scale: Subjects report their pain on the 4-point VRS (none, mild, moderate, or severe) immediately before their first dose of the study drug (baseline VRS).

[6] = test system: patients undergoing abdominoplasty; experiment: Study of Compound 1 in patients undergoing abdominoplasty (NCT05034952); format: in vivo, human
[7] = Compound 1 combined dose groups, pregabalin 100 mg tid, 12 weeks

**Q.** `COc1c([C@H]2[C@H](C(=O)Nc3ccnc(C(N)=O)c3)O[C@@](C)(C(F)(F)F)[C@H]2C)ccc(F)c1F` [Compound 1, (2R,3S,4S,5R)-4-[[3-(3,4-difluoro-2-methoxy-phenyl)-4,5-dimethyl-5-(trifluoromethyl)tetrahydrofuran-2-carbonyl]amino]pyridine-2-carboxamide] was tested. Which “Patients reporting good, very good, or excellent on Patient Global Assessment (PGA) at end of treatment” value (from here on “Patients reporting good, very good”) ([1]; all patients (256 subjects)) did it give?
**A.** 83.2%

**Q.** What about the “Patients reporting good, very good” value ([1]; non-surgical patients (34 subjects)) of the same compound?
**A.** 91.2%

**Q.** What about the “Patients reporting good, very good” value ([1]; surgical patients (222 subjects)) of the same compound?
**A.** 82.0%

**Q.** What about the “Serious adverse events related to study drug” value ([1]; up to 14 days) of the same compound?
**A.** no serious adverse events were related to Compound 1

**Q.** What about the “Incidence of serious adverse events” value ([1]; up to 14 days, 256 subjects) of the same compound?
**A.** 0.8%

**Q.** What about the “Treatment discontinuations due to adverse events” value ([1]; up to 14 days, 256 subjects) of the same compound?
**A.** 2.0%

**Q.** And the Safety and tolerability ([1]; up to 14 days, surgical and non-surgical pain, 256 subjects)?
**A.** generally safe and well tolerated

**Q.** And the “Median time to ≥2-point reduction in NPRS from baseline” value [2]?
**A.** 2 h

**Q.** And the “Change from baseline at week 12 in weekly average of daily pain on the NPRS (LS Mean)” value (“Change from baseline” for short) ([3]; Compound 1 23 mg qd (low dose), painful DPN)?
**A.** −2.18

**Q.** And the “Change from baseline” value ([3]; Compound 1 46 mg qd (mid dose), painful DPN)?
**A.** −2.11

**Q.** And the “Change from baseline” value ([3]; Compound 1 69 mg qd (high dose), painful DPN)?
**A.** −2.26

**Q.** What about the “Reduction in pain from baseline (NPRS)” value ([3]; all three Compound 1 dose groups (23, 46, 69 mg qd), 12-week treatment, painful DPN) of the same compound?
**A.** statistically significant and clinically meaningful reduction in pain from baseline; also recorded: significant mean reduction in pain from baseline that started from week 1

**Q.** And the “Sleep (Daily Sleep Interference Scale, DSIS) at week 12” value ([3]; all three Compound 1 dose groups (23, 46, 69 mg qd), painful DPN)?
**A.** improvement in sleep

**Q.** What about the “Median time to 2-point reduction in NPRS from baseline” value [4] of the same compound?
**A.** 4 h

**Q.** And the Onset of action ([5]; Compound 1 high dose, 48 hour assessment)?
**A.** rapid and was sustained through the duration of assessment

**Q.** What about the “Mean SPID48” value ([5]; High-dose Compound 1: 100 mg first dose/50 mg every 12 hours, n = 60, NPRS 0 to 48 hours) of the same compound?
**A.** 137.8

**Q.** What about the “Mean SPID48 difference from placebo” value ([5]; Low-dose Compound 1: 20 mg first dose/10 mg every 12 hours, n = 33) of the same compound?
**A.** 11.9

**Q.** And the “Mean SPID48” value ([5]; Low-dose Compound 1: 20 mg first dose/10 mg every 12 hours, n = 33, NPRS 0 to 48 hours)?
**A.** 112.9

**Q.** And the “Mean SPID48 difference from placebo” value ([5]; Mid-dose Compound 1: 60 mg first dose/30 mg every 12 hours, n = 62)?
**A.** −14.1

**Q.** And the “Mean SPID48” value ([5]; Mid-dose Compound 1: 60 mg first dose/30 mg every 12 hours, n = 62, NPRS 0 to 48 hours)?
**A.** 86.9

**Q.** And the “Improvement in SPID48” value [6]?
**A.** statistically significant improvement in SPID48

**Q.** With `CC(C)C[C@H](CN)CC(=O)O` [Pregabalin, reference compound] as the compound, how does the “Incidence of dizziness (adverse event)” value [3, 7] read?
**A.** 9.3%

**Q.** And the “Incidence of peripheral edema (adverse event)” value [3, 7]?
**A.** 5.6%

**Q.** And the “Incidence of weight increased (adverse event)” value [3, 7]?
**A.** 7.4%

**Q.** And the “Change from baseline” value ([3]; Pregabalin 100 mg tid, painful DPN)?
**A.** −2.09

**Q.** What about the Related adverse events ([3]; patients treated with Compound 1 (combined), patients treated with pregabalin 100 mg tid, 12 weeks) of the same compound?
**A.** 27.8%

From US20250186419A1, “DOSING REGIMENS FOR TREATING PAIN” (VERTEX PHARMACEUTICALS INCORPORATED, priority 2023, published 2025)
